These results are taken from patent publication EP2092824A1, “Heterocyclyl pyrimidines” (Bayer CropScience AG, priority 2008, dated 2009).

Series [1] is described as follows: logP determination by HPLC on reversed-phase column (EEC-Directive 79/831 Annex V.A8). Type of series: physicochemical. The following applies: c18 hplc, C 18 reversed phase, 43°C, LC-MS at pH 2,7 (0,1 % aqueous formic acid / acetonitrile). The method, then:
Die Bestimmung der in den Herstellungsbeispielen angegebenen logP-Werte erfolgte gemäß EEC-Directive 79/831 Annex V.A8 durch HPLC (High Performance Liquid Chromatography) an einer Phasenumkehrsäule (C 18). Temperatur: 43°C.
Die Bestimmung erfolgte mit der LC-MS bei pH 2,7 mit 0,1 % wässriger Ameisensäure und Acetonitril (enthält 0,1 % Ameisensäure) als Eluenten; linearer Gradient von 10 % Acetonitril bis 95 % Acetonitril.
Die Eichung erfolgte mit unverzweigten Alkan-2-onen (mit 3 bis 16 Kohlenstoffatomen), deren logP-Werte bekannt sind (Bestimmung der logP-Werte anhand der Retentionszeiten durch lineare Interpolation zwischen zwei aufeinanderfolgenden Alkanonen).

The next series deals with Sphaerotheca fuliginea. Description: Sphaerotheca test (cucumber) / protective. The format is in vivo. The settings on record: Konzentration an Wirkstoff 500ppm, cucumber plants, evaluation 7 days after inoculation, 100 % = no infestation. The source says: Sphaerotheca-Test (Gurke) / protektiv
(§1) Zur Herstellung einer zweckmäßigen Wirkstoffzubereitung vermischt man 1 Gewichtsteil Wirkstoff mit den angegebenen Mengen Lösungsmittel und Emulgator und verdünnt das Konzentrat mit Wasser auf die gewünschte Konzentration.
Zur Prüfung auf protektive Wirksamkeit bespritzt man junge Gurkenpflanzen mit der Wirkstoffzubereitung in der angegebenen Aufwandmenge. 1 Tag nach der Behandlung werden die Pflanzen mit einer Sporensuspension von Sphaerotheca fuliginea inokuliert. Anschließend werden die Pflanzen in einem Gewächshaus bei 70 % relativer Luftfeuchtigkeit und einer Temperatur von 23 °C aufgestellt.
7 Tage nach der Inokulation erfolgt die Auswertung. Dabei bedeutet 0 % ein Wirkungsgrad, der demjenigen der Kontrolle entspricht, während ein Wirkungsgrad von 100 % bedeutet, daß kein Befall beobachtet wird.

A further series deals with Phaedon cochleariae. The series can be described thus: Phaedon test (PHAECO spray treatment). Type of series: in vivo. The settings on record: foliar, Aufwandmenge 500 g/ha, sprayed Chinese cabbage leaf discs, larvae, 100 % = all beetle larvae killed, read-out: Wirkung. The source says:
Phaedon-Test (PHAECO Spritzbehandlung)
(§2) Zur Herstellung einer zweckmäßigen Wirkstoffzubereitung vermischt man 1 Gewichtsteil Wirkstoff mit den angegebenen Mengen Lösungsmittel und Emulgator und verdünnt das Konzentrat mit emulgatorhaltigem Wasser auf die gewünschte Konzentration.
Chinakohlblattscheiben (Brassica pekinensis) werden mit einer Wirkstoffzubereitung der gewünschten Konzentration gespritzt und nach dem Abtrocknen mit Larven des Meerrettichblattkäfers (Phaedon cochleariae) besetzt.
Nach der gewünschten Zeit wird die Wirkung in % bestimmt. Dabei bedeutet 100 %, dass alle Käferlarven abgetötet wurden; 0 % bedeutet, dass keine Käferlarven abgetötet wurden.

The subject of a further series is Puccinia recondita. The series can be described thus: Puccinia test (wheat) / protective. Type of series: in vivo. The settings on record: Konzentration an Wirkstoff 500ppm, wheat plants, evaluation 7-9 days after inoculation, 100 % = no infestation.
Source text: Puccinia-Test (Weizen) / protektiv
as §1
Zur Prüfung auf protektive Wirksamkeit bespritzt man junge Weizenpflanzen mit der Wirkstoffzubereitung in der angegebenen Aufwandmenge. 1 Tag nach der Behandlung werden die Pflanzen mit einer Sporensuspension von Puccinia recondita inokuliert und stehen dann 48h bei 100% rel. Feuchte und 22°C. Anschließend stehen die Pflanzen bei 80% rel. Luftfeuchtigkeit und einer Temperatur von 20 °C.
7-9 Tage nach der Inokulation erfolgt die Auswertung. Dabei bedeutet 0 % ein Wirkungsgrad, der demjenigen der Kontrolle entspricht, während ein Wirkungsgrad von 100 % bedeutet, dass kein Befall beobachtet wird.

The subject of the next series is Myzus persicae. Description: Myzus test (MYZUPE spray treatment). Type of series: in vivo. The settings on record: foliar, Aufwandmenge 500 g/ha, sprayed Chinese cabbage leaf discs (Brassica pekinensis) infested with all stages, 100 % = all aphids killed, read-out: Wirkung.
Source text: Myzus-Test (MYZUPE Spritzbehandlung)
as §2
Chinakohlblattscheiben (Brassica pekinensis), die von allen Stadien der Grünen Pfirsichblattlaus (Myzus persicae) befallen sind, werden mit einer Wirkstoffzubereitung der gewünschten Konzentration gespritzt.
Nach der gewünschten Zeit wird die Wirkung in % bestimmt. Dabei bedeutet 100 %, dass alle Blattläuse abgetötet wurden; 0 % bedeutet, dass keine Blattläuse abgetötet wurden.

A further series has as its system Meloidogyne incognita. Description: Meloidogyne test (MELGIN spray treatment). The settings on record: Aufwandmenge 4 ppm; nematicidal effect by gall formation on lettuce roots; 100 % = no galls. Type of series: in vivo. The source says:
Meloidogyne-Test (MELGIN Spritzbehandlung)
Zur Herstellung einer zweckmäßigen Wirkstoffzubereitung vermischt man 1 Gewichtsteil Wirkstoff mit der angegebenen Menge Lösungsmittel und verdünnt das Konzentrat mit Wasser auf die gewünschte Konzentration.
Gefäße werden mit Sand, Wirkstofflösung, Meloidogyne incognita-Ei-Larven-Suspension und Salatsamen gefüllt. Die Salatsamen keimen und die Pflänzchen entwickeln sich. An den Wurzeln entwickeln sich die Gallen.
Nach der gewünschten Zeit wird die nematizide Wirkung an Hand der Gallenbildung in % bestimmt. Dabei bedeutet 100 %, dass keine Gallen gefunden wurden; 0 % bedeutet, dass die Zahl der Gallen an den behandelten Pflanzen der der unbehandelten Kontrolle entspricht.

A value given as a limit tells only on which side of the number the result lay.

What is called chromatographic logP is a lipophilicity value derived from retention on a column. A high value points to a more lipophilic compound. With `CSc1nc(Cl)c(-c2ccccc2Cl)c(Cl)n1` [4,6-Dichlor-5-(2-chlorphenyl)-2-(methylthio)pyrimidin], the chromatographic logP in series [1] stood at 4.52.
The same measure, in the same setting: the same measure for `CC(C)Nc1nc([S+](C)[O-])nc(Cl)c1-c1ccccc1Cl` (centres unmarked) [4-Chlor-5-(2-chlorphenyl)-6-(isopropylamino)-2-(methylsulfinyl)-pyrimidin]: 2.55; for `CSc1nc(Cl)c(-c2ccccc2Cl)c(NC(C)C)n1` [4-Chlor-5-(2-chlorphenyl)-6-(isopropylamino)-2-(methylthio)-pyrimidin]: 4.52.
Turning to `CC(C)Nc1nc(-n2ccc(C(=O)NS(C)(=O)=O)n2)nc(Cl)c1-c1ccccc1Cl` [I-2, 1-[4-Chlor-5-(2-chlorphenyl)-6-(isopropylamino)pyrimidin-2-yl]-N-(methylsulfonyl)-1H-pyrazol-3-carboxamid], the Wirkungsgrad in the series on Sphaerotheca fuliginea and in the series on Puccinia recondita was at least 70% in each case. The mortality at 500 g/ha in the series on Phaedon cochleariae and in the series on Myzus persicae was at least 80% each time.
As for `Cc1cc(C(=O)NS(C)(=O)=O)nn1-c1nc(Cl)c(-c2ccccc2Cl)c(NC(C)C)n1` [I-3, 1-[4-Chlor-5-(2-chlorphenyl)-6-(isopropylamino)pyrimidin-2-yl]-5-methyl-N-(methylsulfonyl)-1H-pyrazol-3-carboxamid], the Wirkungsgrad in the series on Sphaerotheca fuliginea and in the series with Puccinia recondita was at least 70% in each case. The mortality at 500 g/ha with Phaedon cochleariae and in the series with Myzus persicae was at least 80% each time. This compound displayed a Wirkung in the series with Meloidogyne incognita of at least 80%.
As for `Cc1cc(C(=O)NS(C)(=O)=O)nn1-c1nc(Cl)c(-c2ccccc2)c(NC(C)C)n1` [I-4], the mortality at 500 g/ha with Phaedon cochleariae was at least 80%.
`Cc1cc(C(=O)NS(C)(=O)=O)nn1-c1nc(Cl)c(-c2c(F)cc(F)cc2F)c(NC(C)C)n1` [I-6]: the mortality at 500 g/ha in the series with Phaedon cochleariae and in the series with Myzus persicae was at least 80% in each case.
On to `CC(C)Nc1nc(S(C)(=O)=O)nc(Cl)c1-c1ccccc1Cl` [II-1, 4-Chlor-5-(2-chlorphenyl)-6-isopropylamino-2-methylsulfonyl-pyrimidin], for which, in series [1], the chromatographic logP worked out at 2.96.
For the compound `CC(C)Nc1nc(-n2ccc(C(=O)O)n2)nc(Cl)c1-c1ccccc1Cl` [X-1, 1-[4-Chlor-5-(2-chlorphenyl)-6-(isopropylamino)pyrimidin-2-yl]-1H-pyrazol-3-carbonsäure], the mortality at 500 g/ha in the series on Phaedon cochleariae and in the series with Myzus persicae was at least 80% each time.
For the compound `Cc1cc(C(=O)O)nn1-c1nc(Cl)c(-c2ccccc2Cl)c(NC(C)C)n1` [X-2, 1-[4-Chlor-5-(2-chlorphenyl)-6-(isopropylamino)pyrimidin-2-yl]-5-methyl-1H-pyrazol-3-carbonsäure], the mortality at 500 g/ha in the series with Phaedon cochleariae and in the series on Myzus persicae was at least 80% throughout.
In the case of `Cc1cc(C(=O)O)nn1-c1nc(Cl)c(-c2ccccc2)c(NC(C)C)n1` [X-3], the mortality at 500 g/ha in the series with Phaedon cochleariae was at least 80%.
For `Cc1cc(C(=O)O)nn1-c1nc(Cl)c(-c2c(F)cc(F)cc2F)c(NC(C)C)n1` [X-5], the mortality at 500 g/ha in the series on Phaedon cochleariae and in the series with Myzus persicae was at least 80% each time.
